Legend:
HIV-1 pNL4-3 = test: HIV-1 5-day cytoprotection assay in MT4 cells; type: cell-based, human immunodeficiency virus type 1; conditions: Human immunodeficiency virus 1, HIV-1 pNL4-3 infectivity, HIV-1 PI alone
Method: . […]. The plates were incubated at 37°C for 5 days. After this period, 25 μl MTT reagent (4 mg/ml) was added to the cells, and the plates were incubated for 4 h. The MTT formazan formed in the cells was solubilized by 50 μl of acidified SDS overnight. The plates were read at wavelengths of 570 and 650 nm using a spectrophotometer. […]

GT3a / 3a Wild type [1] = tested on: T1, GT3a / 3a Wild type; test: Luciferase reporter assay of HCV replication in stable subgenomic replicon cells, 5% fetal bovine serum, no human plasma (at least 3 experiments).; type: cell-based, Huh-7; conditions: SD, n = 3; read-out: HCV stable replicons in 0% human plasma, Mean EC50 ± SD
T1 construct: NS3 N-terminal region in chimeric replicon
Source text: (§1) . Five of these nine cell lines have been described previously, including those transfected with genotypes 1a H77, 1b Con1, 3a, 4a, and 6a ([28]). The other four cell lines were established by transfecting cells with a nonchimeric genotype 2a JFH-1 replicon (GenBank accession number AB047639), two genotype 2a JFH-1 chimeric replicons containing either a genotype 2b NS3 protease domain (N-terminal 251 amino acids) or a sequence encoding full-length NS3 through the first 39 amino acids of NS5B from genotype 5a (strain SA13), and one chimeric replicon with a genotype 1b Con1 backbone containing full-length NS3 and NS4A sequences from genotype 6e. The genotype 2b and 6e NS3 sequences were each synthetically constructed based on a consensus sequence derived from the alignment of 15 genotype 2b and 4 genotype 6e sequences, respectively. All replicon constructs were bicistronic subgenomic replicons similar to those described by Bartenschlager and coworkers, and the replicon cell lines were generated by introducing these constructs into cells of an Huh-7 human hepatoma-derived cell line ([50]). The inhibitory effect of the PIs on HCV replication in replicon cells was determined in Dulbecco's modified Eagle medium containing 5% fetal bovine serum with or without 40% human plasma (Bioreclamation, Westbury, NY). The EC50s were determined using nonlinear regression curve fitting as described previously ([33]).

GT4a / 4a Wild type [2] = tested on: T2, GT4a / 4a Wild type; test: as above; type: cell-based, Huh-7; conditions: SD, n = 3; read-out: HCV stable replicons in 0% human plasma, Mean EC50 ± SD
T2 construct: NS3 N-terminal region in chimeric replicon
Source text: as §1

GT6a / 6a Wild type [3] = tested on: T3, GT6a / 6a Wild type; test: as above; type: cell-based, Huh-7; conditions: SD, n = 3; read-out: HCV stable replicons in 0% human plasma, Mean EC50 ± SD
T3 construct: NS3 N-terminal region in chimeric replicon
Source text: as §1

GT6e = tested on: T4, GT6e; test: as above; type: cell-based, Huh-7; conditions: SD, n = 3; read-out: HCV stable replicons in 0% human plasma, Mean EC50 ± SD
T4 construct: full-length NS3 and NS4A in genotype 1b Con1 chimeric replicon
Source text: as §1

GT2b / 2b Wild type = target: T5, GT2b / 2b Wild type; test: Luciferase assay of HCV replication in transient-transfection replicons with wild-type or substituted NS3 (at least 3 transfections).; type: cell-based, Huh-7; conditions: SD, n = 3
T5 construct: NS3 protease domain (N-terminal 251 aa) in genotype 2a JFH-1 chimeric replicon

GT3a / 3a Wild type [4] = target: T1, GT3a / 3a Wild type; test: as above; type: cell-based, Huh-7; conditions: SD, n = 3
GT4a / 4a Wild type [5] = target: T2, GT4a / 4a Wild type; test: as above; type: cell-based, Huh-7; conditions: SD, n = 3
GT6a / 6a Wild type [6] = target: T3, GT6a / 6a Wild type; test: as above; type: cell-based, Huh-7; conditions: SD, n = 3
4d Wild type = target: T6, 4d Wild type; test: as above; type: cell-based, Huh-7; conditions: SD, n = 3
T6 construct: NS3 in transient replicon

2b A156T = target: T7, 2b A156T; test: as above; type: cell-based, Huh-7; conditions: SD, n = 3
T7 construct: in genotype 2a JFH-1 chimeric transient replicon

2b A156V = target: T8, 2b A156V; test: as above; type: cell-based, Huh-7; conditions: SD, n = 3
T8 construct: in genotype 2a JFH-1 chimeric transient replicon

2b D168A = target: T9, 2b D168A; test: as above; type: cell-based, Huh-7; conditions: SD, n = 3
T9 construct: in genotype 2a JFH-1 chimeric transient replicon

2b D168E = target: T10, 2b D168E; test: as above; type: cell-based, Huh-7; conditions: SD, n = 3
T10 construct: in genotype 2a JFH-1 chimeric transient replicon

2b D168V = target: T11, 2b D168V; test: as above; type: cell-based, Huh-7; conditions: SD, n = 3
T11 construct: in genotype 2a JFH-1 chimeric transient replicon

3a A156G = target: T12, 3a A156G; test: as above; type: cell-based, Huh-7; conditions: SD, n = 3
T12 construct: in chimeric transient replicon

3a Q168R = target: T13, 3a Q168R; test: as above; type: cell-based, Huh-7; conditions: SD, n = 3
T13 construct: in chimeric transient replicon

4a R155C = target: T14, 4a R155C; test: as above; type: cell-based, Huh-7; conditions: SD, n = 3
T14 construct: in chimeric transient replicon

4a A156T = target: T15, 4a A156T; test: as above; type: cell-based, Huh-7; conditions: SD, n = 3
T15 construct: in chimeric transient replicon

4a A156V = target: T16, 4a A156V; test: as above; type: cell-based, Huh-7; conditions: SD, n = 3
T16 construct: in chimeric transient replicon

4a D168H = target: T17, 4a D168H; test: as above; type: cell-based, Huh-7; conditions: SD, n = 3
T17 construct: in chimeric transient replicon

4a D168V = target: T18, 4a D168V; test: as above; type: cell-based, Huh-7; conditions: SD, n = 3
T18 construct: in chimeric transient replicon

4d D168V = conditions: read-out: Mean EC50 ± SD, n = 3
Method: Mutagenesis was performed using a Change-IT multiple-mutation site-directed mutagenesis kit (USB, Cleveland, OH) or by cloning a synthesized DNA fragment encoding the amino acid substitution(s). The genotype 1a and 1b replicon shuttle vectors used for the introduction of the substitutions of interest in the NS3, NS5A, or NS5B gene for transient-transfection assays have been described previously ([28], [33]). The replicon shuttle vectors used for the introduction of substitutions in NS3 genes from other genotypes were similar to the stable replicon cell line constructs described above, except for the absence of the neo gene. After mutagenesis, the plasmids were linearized and RNA was transcribed and then used to transfect Huh-7 cells. Inhibition of HCV replication by the HCV inhibitors was measured by luciferase assay, as described above. Replication efficiency was calculated as a percentage of wild-type replication, as described previously ([28]).

6a D168A = target: T19, 6a D168A; test: Luciferase assay of HCV replication in transient-transfection replicons with wild-type or substituted NS3 (at least 3 transfections).; type: cell-based, Huh-7; conditions: SD, n = 3
T19 construct: in chimeric transient replicon

6a D168H = target: T20, 6a D168H; test: as above; type: cell-based, Huh-7; conditions: SD, n = 3
T20 construct: in chimeric transient replicon

6a D168V = target: T21, 6a D168V; test: as above; type: cell-based, Huh-7; conditions: SD, n = 3
T21 construct: in chimeric transient replicon

[7] = tested on: genotype 1b Con1 replicon cells; test: Checkerboard combination assay (MacSynergy II); type: cell-based, Hepatitis C virus
Method: […]. The resulting data were analyzed using the MacSynergy II program ([34], [51], [52]). The assignment of the synergy or antagonism volumes was based on the guidelines provided in the MacSynergy II program user's manual ([34]).

CC(C)CN(C[C@@H](O)[C@H](Cc1ccccc1)NC(=O)O[C@H]1CO[C@H]2OCC[C@H]21)S(=O)(=O)c1ccc(N)cc1 [Darunavir]
EC50 (HIV-1 pNL4-3): 0.01 µM

C=C[C@@H]1C[C@]1(NC(=O)[C@@H]1C[C@@H]2CN1C(=O)[C@H](C(C)(C)C)NC(=O)O[C@@H]1C[C@H]1CCCCCc1nc3ccc(OC)cc3nc1O2)C(=O)NS(=O)(=O)C1CC1 [Grazoprevir, grazoprevir (MK-5172)]
EC50 (GT3a / 3a Wild type [1]): 0.083 ± 0.018 µM | EC50 (GT4a / 4a Wild type [2]): 0.0012 ± 0.00031 µM | EC50 (GT6a / 6a Wild type [3]): 0.00089 ± 0.00032 µM | EC50 (GT6e): 0.00025 ± 1e-05 µM | EC50 (GT2b / 2b Wild type): 0.0061 ± 0.0013 µM | EC50 (GT3a / 3a Wild type [4]): 0.047 ± 0.014 µM | EC50 (GT4a / 4a Wild type [5]): 0.00028 ± 4e-05 µM | EC50 (GT6a / 6a Wild type [6]): 0.0001 ± 2e-05 µM | EC50 (4d Wild type): 0.00018 ± 1e-05 µM | EC50 (2b A156T): 1.56 µM | EC50 (2b A156V): 2.89 µM | EC50 (2b D168A): 0.347 ± 0.113 µM | EC50 (2b D168E): 0.035 ± 0.006 µM | EC50 (2b D168V): 0.088 ± 0.019 µM | EC50 (3a A156G): 0.614 ± 0.148 µM | EC50 (3a Q168R): 0.165 ± 0.046 µM | EC50 (4a R155C): 0.002 ± 0.00027 µM | EC50 (4a A156T): 0.296 ± 0.022 µM | EC50 (4a A156V): 0.169 ± 0.027 µM | EC50 (4a D168H): 0.025 ± 0.0063 µM | EC50 (4a D168V): 0.013 ± 0.0011 µM | EC50 (4d D168V): 0.0025 ± 8e-05 µM | EC50 (6a D168A): 0.103 ± 0.034 µM | EC50 (6a D168H): 0.045 ± 0.0041 µM | EC50 (6a D168V): 0.024 ± 0.0012 µM

Cc1cccc(C)c1OCC(=O)N[C@@H](Cc1ccccc1)[C@@H](O)C[C@H](Cc1ccccc1)NC(=O)[C@H](C(C)C)N1CCCNC1=O [Lopinavir]
EC50 (HIV-1 pNL4-3): 0.023 µM

NC(=O)c1ncn([C@@H]2O[C@H](CO)[C@@H](O)[C@H]2O)n1 [RBV, reference compound]
EC50 ([7]; Hepatitis C virus): 19 µM

IFN-α
EC50 ([7]; genotype 1b replicon cells): 1.2 IU/ml
